# Measured values from US12077503B2, “Substituted cyclic amides and their use as herbicides” (FMC CORPORATION, priority 2015, dated 2024).
# Tests used:
# Test in all cases: Test C preemergence
# Assay type in all cases: in vivo
# [1] = test system: Galium (catchweed bedstraw, Galium aparine); conditions: for Plant response rating, Galium: scale 0 to 100, 0 no effect, 100 complete control
# How it was run: (§1)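 Herbicidal effect, applied preemergence to sown seeds or postemergence to 1- to 4-leaf plants, was scored visually 13 to 15 d after application, 0 to 100 versus controls.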
# [2] = test system: barnyardgrass (Echinochloa crus-galli); conditions: for Plant response rating, Barnyardgrass: scale 0 to 100, 0 no effect, 100 complete control
# How it was run: as §1
# [3] = test system: blackgrass (Alopecurus myosuroides); conditions: for Plant response rating, Blackgrass: scale 0 to 100, 0 no effect, 100 complete control
# How it was run: as §1
# corn (Zea mays) = conditions: for Plant response rating, Corn: scale 0 to 100, 0 no effect, 100 complete control
# How it was run: as §1
# [4] = test system: crabgrass, large (large crabgrass, Digitaria sanguinalis); conditions: for Plant response rating, Crabgrass, Large: scale 0 to 100, 0 no effect, 100 complete control
# How it was run: as §1
# [5] = test system: foxtail, giant (giant foxtail, Setaria faberii); conditions: for Plant response rating, Foxtail, Giant: scale 0 to 100, 0 no effect, 100 complete control
# How it was run: as §1
# [6] = test system: johnsongrass (Sorghum halepense); conditions: for Plant response rating, Johnsongrass: scale 0 to 100, 0 no effect, 100 complete control
# How it was run: as §1
# [7] = test system: lambsquarters (Chenopodium album); conditions: for Plant response rating, Lambsquarters: scale 0 to 100, 0 no effect, 100 complete control
# How it was run: as §1
# [8] = test system: morningglory (Ipomoea coccinea); conditions: for Plant response rating, Morningglory: scale 0 to 100, 0 no effect, 100 complete control
# How it was run: as §1
# [9] = test system: nutsedge, yellow (yellow nutsedge, Cyperus esculentus); conditions: for Plant response rating, Nutsedge, Yellow: scale 0 to 100, 0 no effect, 100 complete control
# How it was run: as §1
# [10] = test system: oilseed rape (Brassica napus); conditions: for Plant response rating, Oilseed Rape: scale 0 to 100, 0 no effect, 100 complete control
# How it was run: as §1
# [11] = test system: pigweed (Amaranthus retroflexus); conditions: for Plant response rating, Pigweed: scale 0 to 100, 0 no effect, 100 complete control
# How it was run: as §1
# [12] = test system: ragweed (common ragweed, Ambrosia elatior); conditions: for Plant response rating, Ragweed: scale 0 to 100, 0 no effect, 100 complete control
# How it was run: as §1
# [13] = test system: ryegrass, Italian (Italian ryegrass, Lolium multiflorum); conditions: for Plant response rating, Ryegrass, Italian: scale 0 to 100, 0 no effect, 100 complete control
# How it was run: as §1
# soybean (Glycine max) = conditions: for Plant response rating, Soybean: scale 0 to 100, 0 no effect, 100 complete control
# How it was run: as §1
# [14] = test system: velvetleaf (Abutilon theophrasti); conditions: for Plant response rating, Velvetleaf: scale 0 to 100, 0 no effect, 100 complete control
# How it was run: as §1
# [15] = test system: waterhemp (common waterhemp, Amaranthus rudis); conditions: for Plant response rating, Waterhemp: scale 0 to 100, 0 no effect, 100 complete control
# How it was run: as §1
# [16] = test system: wheat (winter wheat, Triticum aestivum); conditions: for Plant response rating, Wheat: scale 0 to 100, 0 no effect, 100 complete control
# How it was run: as §1
# [17] = 31 g ai/ha, 0 is no effect, 100 is complete control
smiles,measurement,setting,value
O=C1NCC(c2cccc(C(F)(F)F)c2F)C1C(=O)Nc1cccc(F)c1F (stereo not drawn) [Compound 591],"Plant response rating (scale of 0 to 100), Galium",[1]; [17],5
same,"Plant response rating, Galium",[1]; 62 g ai/ha,50
same,"Plant response rating, Galium",[1]; 125 g ai/ha,50
same,"Plant response rating, Galium",[1]; 250 g ai/ha,80
same,"Plant response rating (scale of 0 to 100), Barnyardgrass",[2]; [17],90
same,"Plant response rating, Barnyardgrass",[2]; 62 g ai/ha,90
same,"Plant response rating, Barnyardgrass",[2]; 125 g ai/ha,95
same,"Plant response rating, Barnyardgrass",[2]; 250 g ai/ha,95
same,"Plant response rating (scale of 0 to 100), Blackgrass",[3]; [17],30
same,"Plant response rating, Blackgrass",[3]; 62 g ai/ha,85
same,"Plant response rating, Blackgrass",[3]; 125 g ai/ha,90
same,"Plant response rating, Blackgrass",[3]; 250 g ai/ha,90
same,"Plant response rating (scale of 0 to 100), Corn",corn (Zea mays); [17],45
same,"Plant response rating, Corn",corn (Zea mays); 62 g ai/ha,70
same,"Plant response rating, Corn",corn (Zea mays); 125 g ai/ha,60
same,"Plant response rating, Corn",corn (Zea mays); 250 g ai/ha,80
same,"Plant response rating (scale of 0 to 100), Crabgrass, Large",[4]; [17],90
same,"Plant response rating, Crabgrass, Large",[4]; 62 g ai/ha,90
same,"Plant response rating, Crabgrass, Large",[4]; 125 g ai/ha,90
same,"Plant response rating, Crabgrass, Large",[4]; 250 g ai/ha,95
same,"Plant response rating (scale of 0 to 100), Foxtail, Giant",[5]; [17],85
same,"Plant response rating, Foxtail, Giant",[5]; 62 g ai/ha,90
same,"Plant response rating, Foxtail, Giant",[5]; 125 g ai/ha,90
same,"Plant response rating, Foxtail, Giant",[5]; 250 g ai/ha,95
same,"Plant response rating (scale of 0 to 100), Johnsongrass",[6]; [17],35
same,"Plant response rating, Johnsongrass",[6]; 62 g ai/ha,55
same,"Plant response rating, Johnsongrass",[6]; 125 g ai/ha,75
same,"Plant response rating, Johnsongrass",[6]; 250 g ai/ha,85
same,"Plant response rating (scale of 0 to 100), Lambsquarters",[7]; [17],10
same,"Plant response rating, Lambsquarters",[7]; 62 g ai/ha,20
same,"Plant response rating, Lambsquarters",[7]; 125 g ai/ha,35
same,"Plant response rating, Lambsquarters",[7]; 250 g ai/ha,70
same,"Plant response rating (scale of 0 to 100), Morningglory",[8]; [17],10
same,"Plant response rating, Morningglory",[8]; 62 g ai/ha,30
same,"Plant response rating, Morningglory",[8]; 125 g ai/ha,40
same,"Plant response rating, Morningglory",[8]; 250 g ai/ha,65
same,"Plant response rating (scale of 0 to 100), Nutsedge, Yellow",[9]; [17],0
same,"Plant response rating, Nutsedge, Yellow",[9]; 62 g ai/ha,0
same,"Plant response rating, Nutsedge, Yellow",[9]; 125 g ai/ha,0
same,"Plant response rating, Nutsedge, Yellow",[9]; 250 g ai/ha,0
same,"Plant response rating (scale of 0 to 100), Oilseed Rape",[10]; [17],5
same,"Plant response rating, Oilseed Rape",[10]; 62 g ai/ha,20
same,"Plant response rating, Oilseed Rape",[10]; 125 g ai/ha,30
same,"Plant response rating, Oilseed Rape",[10]; 250 g ai/ha,85
same,"Plant response rating (scale of 0 to 100), Pigweed",[11]; [17],10
same,"Plant response rating, Pigweed",[11]; 62 g ai/ha,45
same,"Plant response rating, Pigweed",[11]; 125 g ai/ha,60
same,"Plant response rating, Pigweed",[11]; 250 g ai/ha,75
same,"Plant response rating (scale of 0 to 100), Ragweed",[12]; [17],0
same,"Plant response rating, Ragweed",[12]; 62 g ai/ha,20
same,"Plant response rating, Ragweed",[12]; 125 g ai/ha,35
same,"Plant response rating, Ragweed",[12]; 250 g ai/ha,70
same,"Plant response rating (scale of 0 to 100), Ryegrass, Italian",[13]; [17],0
same,"Plant response rating, Ryegrass, Italian",[13]; 62 g ai/ha,10
same,"Plant response rating, Ryegrass, Italian",[13]; 125 g ai/ha,35
same,"Plant response rating, Ryegrass, Italian",[13]; 250 g ai/ha,75
same,"Plant response rating (scale of 0 to 100), Soybean",soybean (Glycine max); [17],0
same,"Plant response rating, Soybean",soybean (Glycine max); 62 g ai/ha,0
same,"Plant response rating, Soybean",soybean (Glycine max); 125 g ai/ha,0
same,"Plant response rating, Soybean",soybean (Glycine max); 250 g ai/ha,0
same,"Plant response rating (scale of 0 to 100), Velvetleaf",[14]; [17],0
same,"Plant response rating, Velvetleaf",[14]; 62 g ai/ha,0
same,"Plant response rating, Velvetleaf",[14]; 125 g ai/ha,20
same,"Plant response rating, Velvetleaf",[14]; 250 g ai/ha,20
same,"Plant response rating (scale of 0 to 100), Waterhemp",[15]; [17],5
same,"Plant response rating, Waterhemp",[15]; 62 g ai/ha,30
same,"Plant response rating, Waterhemp",[15]; 125 g ai/ha,65
same,"Plant response rating, Waterhemp",[15]; 250 g ai/ha,70
same,"Plant response rating (scale of 0 to 100), Wheat",[16]; [17],0
same,"Plant response rating, Wheat",[16]; 62 g ai/ha,10
same,"Plant response rating, Wheat",[16]; 125 g ai/ha,30
same,"Plant response rating, Wheat",[16]; 250 g ai/ha,70
